The assay addresses Recombinant human ATX (Homo sapiens (Human), UniProt Q13822). The assay can be described thus: ATX inhibition assay (choline release, Amplex Red fluorescence). The following applies: ATX 10 nM, LPC 18:1 10 μM, 37° C., 20 min pre-incubation; mean of n≧2. Format: biochemical. An outline of the steps: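 Activity was taken from the slope of resorufin fluorescence (530/590 nm, read every 2 min for 40 min at 37 °C) produced by choline liberated from 10 μM oleoyl LPC.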

As to `COc1ccc(CN2CCN(C(=O)/C=C/c3ccc(Cl)cc3Cn3nnc(C)n3)[C@H](C)C2)nc1` [Example 123, (R,E)-3-(4-Chloro-2-((5-methyl-2H-tetrazol-2-yl)methyl)phenyl)-1-(4-((5-methoxypyridin-2-yl)methyl)-2-methylpiperazin-1-yl)prop-2-en-1-one], the IC50 amounted to 3.5 nM.

For the origin of these results see US9763957B2, “Autotaxin inhibitors” (Novartis AG, priority 2013, dated 2017).
